Results taken from the supplement of paper PMC10307832.

Tests used:
Experiment in all cases: relative viability (nuclei count vs DMSO), 5 days (fraction); higher = more cells survive
Tipifarnib + Decitabine = compound: Cn1cncc1[C@@](N)(c1ccc(Cl)cc1)c1ccc2c(c1)c(-c1cccc(Cl)c1)cc(=O)n2C [Tipifarnib] + Nc1ncn([C@H]2C[C@H](O)[C@@H](CO)O2)c(=O)n1 [Decitabine] (partner 2 µM)
Method in brief: (§1)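 Each reported value is a median over duplicate plates. It expresses relative viability: treated-well nuclei count divided by vehicle-well nuclei count. Lung cancer cell lines in 1536-well plates were dosed by pin tool a day after seeding, alone with one drug or with a fixed anchor-drug dose plus five library-drug doses (not always all listed) in √10 steps, and nuclei were counted after 5 days.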

Tipifarnib + Crizotinib = compound: Cn1cncc1[C@@](N)(c1ccc(Cl)cc1)c1ccc2c(c1)c(-c1cccc(Cl)c1)cc(=O)n2C [Tipifarnib] + C[C@@H](Oc1cc(-c2cnn(C3CCNCC3)c2)cnc1N)c1c(Cl)ccc(F)c1Cl [Crizotinib] (partner 1 µM)
Method in brief: as §1

Tipifarnib + Phenformin = compound: Cn1cncc1[C@@](N)(c1ccc(Cl)cc1)c1ccc2c(c1)c(-c1cccc(Cl)c1)cc(=O)n2C [Tipifarnib] + N=C(N)NC(=N)NCCc1ccccc1 [Phenformin] (partner 250 µM)
Method in brief: as §1

Tipifarnib + Navitoclax = compound: Cn1cncc1[C@@](N)(c1ccc(Cl)cc1)c1ccc2c(c1)c(-c1cccc(Cl)c1)cc(=O)n2C [Tipifarnib] + CC1(C)CCC(c2ccc(Cl)cc2)=C(CN2CCN(c3ccc(C(=O)NS(=O)(=O)c4ccc(N[C@H](CCN5CCOCC5)CSc5ccccc5)c(S(=O)(=O)C(F)(F)F)c4)cc3)CC2)C1 [Navitoclax] (partner 0.5 µM)
Method in brief: as §1

Cell Line	relative viability (Tipifarnib + Decitabine; first compound 0.01 µM)	relative viability (Tipifarnib + Decitabine; first compound 0.03162 µM)	relative viability (Tipifarnib + Decitabine; first compound 0.1 µM)	relative viability (Tipifarnib + Decitabine; first compound 0.3162 µM)	relative viability (Tipifarnib + Decitabine; first compound 1 µM)	relative viability (Tipifarnib + Crizotinib; first compound 0.01 µM)	relative viability (Tipifarnib + Crizotinib; first compound 0.03162 µM)	relative viability (Tipifarnib + Crizotinib; first compound 0.1 µM)	relative viability (Tipifarnib + Crizotinib; first compound 0.3162 µM)	relative viability (Tipifarnib + Crizotinib; first compound 1 µM)	relative viability (Tipifarnib + Phenformin; first compound 0.01 µM)	relative viability (Tipifarnib + Phenformin; first compound 0.03162 µM)	relative viability (Tipifarnib + Phenformin; first compound 0.1 µM)	relative viability (Tipifarnib + Phenformin; first compound 0.3162 µM)	relative viability (Tipifarnib + Phenformin; first compound 1 µM)	relative viability (Tipifarnib + Navitoclax; first compound 0.01 µM)	relative viability (Tipifarnib + Navitoclax; first compound 0.03162 µM)	relative viability (Tipifarnib + Navitoclax; first compound 0.1 µM)	relative viability (Tipifarnib + Navitoclax; first compound 0.3162 µM)	relative viability (Tipifarnib + Navitoclax; first compound 1 µM)
HCC-366	0.345	0.337	0.19	0.174	0.16	0.695	0.389	0.151	0.17	0.034	0.619	0.569	0.387	0.313	0.0592	1.14	0.762	0.751	0.483	0.188
HCC-827	0.324	0.333	0.293	0.293	0.259	0.868	0.883	0.712	0.617	0.552	0.425	0.413	0.406	0.34	0.376	0.941	0.95	0.793	0.666	0.66
HOP-62	0.204	0.225	0.196	0.254	0.191	0.726	0.528	0.303	0.35	0.448	0.573	0.418	0.403	0.353	0.347	0.937	0.55	0.377	0.233	0.33
LC-2-ad	0.871	0.913	0.77	0.802	0.641	0.399	0.391	0.382	0.349	0.35	0.566	0.532	0.498	0.568	0.372	0.413	0.296	0.258	0.216	0.201
LCLC-97TM1	0.242	0.242	0.308	0.225	0.205	0.329	0.295	0.244	0.227	0.15	0.423	0.382	0.446	0.355	0.231	0.557	0.359	0.241	0.446	0.19
LK-2	0.375	0.266	0.276	0.265	0.139	0.231	0.217	0.238	0.209	0.222	0.471	0.11	0.428	0.248	0.184	1.08	0.65	0.7	0.421	0.373
LOU-NH91	0.804	0.791	0.801	0.664	0.738	0.741	0.752	0.695	0.619	0.646	0.652	0.589	0.688	0.569	0.414	0.682	0.633	0.663	0.483	0.398
LU99A	0.982	0.6	0.481	0.456	0.399	0.5	0.407	0.353	0.337	0.34	0.918	0.623	0.515	0.404	0.359	0.668	0.618	0.488	0.455	0.356
LXF-289	0.415	0.391	0.429	0.348	0.377	0.769	0.759	0.715	0.694	0.64	0.518	0.494	0.494	0.418	0.175	0.936	0.959	0.87	0.829	0.856
NCI-H23	0.333	0.349	0.307	0.266	0.281	0.579	0.491	0.386	0.311	0.249	0.845	0.752	0.564	0.435	0.346	1.11	0.883	0.657	0.562	0.406
NCI-H322M	0.713	0.751	0.631	0.701	0.666	0.874	0.854	0.79	0.463	0.587	0.868	0.749	0.799	0.682	0.66	1.18	1.2	1.31	0.971	1.19
NCI-H441	0.217	0.241	0.237	0.204	0.183	0.723	0.465	0.492	0.346	0.277	0.984	0.619	0.465	0.525	0.329	0.498	0.255	0.481	0.294	0.253
NCI-H460	0.479	0.33	0.283	0.15	0.0821	1.12	0.249	0.133	0.0704	0.0599	0.516	0.376	0.295	0.224	0.0277	1.13	0.905	0.531	0.252	0.0922
NCI-H520	0.583	0.469	0.627	0.401	0.424	1.05	0.598	0.645	0.341	0.345	0.591	0.319	0.447	0.425	0.267	1.24	1.03	0.917	0.965	0.72
NCI-H596	0.96	0.918	0.963	0.558	0.824	1.09	0.974	1.03	0.945	0.813	0.801	0.745	0.663	0.574	0.658	1.05	0.78	0.72	0.739	0.64
NCI-H647	0.453	0.305	0.261	0.185	0.186	0.76	0.618	0.515	0.367	0.521	0.499	0.353	0.469	0.262	0.114	0.983	0.813	0.822	0.397	0.37
